# Reference: PMC10552892, “Ebselen oxide and derivatives are new allosteric HER2 inhibitors for HER2‐positive cancers” (Molecular Oncology, 2023)
# “Also recorded” adds a separate entry of the source.
# Assays:
# NCI-N87 [1] = assay: Proliferation of NCI-N87 cells; assay type: cell-based, human; conditions: ebselen oxide 7–10 μM, AG1478 5 μM
# Description: (§1) Fig. 3 Ebselen oxide inhibits HER2 activation and HER2‐dependent proliferation in gastric and ovarian HER2^+ cancer cells. (A) HER2‐positive NCI‐87 gastric cancer cells were treated with ebselen oxide (0–20 μM) for 24 h, lysed, and analyzed by western blot using anti‐pY1248‐HER2, HER2, and β‐tubulin antibodies. A representative western blot is shown out of 4 independent experiments. (B) HER2‐positive SKOV3 ovarian cancer cells were treated with ebselen oxide (0–10 μM) for 24 h, lysed, and analyzed by western blot using anti‐pY1248‐HER2, HER2, and ezrin antibodies. A western blot is shown (n = 1). (C, D) Proliferation curves of NCI‐N87 gastric (C) or SKOV3 ovarian (D) cancer cells treated with vehicle or 7–10 μM ebselen oxide measured by MTT assay. Data are mean ± SEM (n = 9–12) of three independent experiments.
# Supplementary figure 4: NCI-N87 and SKOV3 cancer cell lines are addicted to the HER2 pathway
# (A) NCI-N87 cells were treated (+) or not (-) with a non-specific HER2 inhibitor AG1478 (5 µM). Whole cell lysates were analyzed by western blot with pY1248 HER2, HER2 and pERK antibodies.
# (B) SKOV3 cells were treated (+) or not (-) with a non-specific HER2 inhibitor AG1478 (5 µM). Whole cell lysates were analyzed by western blot with pY1248 HER2, HER2, pERK or beta-tubulin antibodies.
# (C) Proliferation curves of NCI-N87 treated or not with AG1478 (5 µM). Data are mean ± sem (n=4-6). 2- […]
# HER2 (pY1248) in NCI-N87 = target: T1, HER2 (pY1248) in NCI-N87 (Homo sapiens, UniProt P04626); assay: HER2 activation in NCI-N87 gastric cancer cells, western blot; assay type: cell-based
# T1 construct: host or cells: NCI-N87
# T1 sequence (P04626 23-1255): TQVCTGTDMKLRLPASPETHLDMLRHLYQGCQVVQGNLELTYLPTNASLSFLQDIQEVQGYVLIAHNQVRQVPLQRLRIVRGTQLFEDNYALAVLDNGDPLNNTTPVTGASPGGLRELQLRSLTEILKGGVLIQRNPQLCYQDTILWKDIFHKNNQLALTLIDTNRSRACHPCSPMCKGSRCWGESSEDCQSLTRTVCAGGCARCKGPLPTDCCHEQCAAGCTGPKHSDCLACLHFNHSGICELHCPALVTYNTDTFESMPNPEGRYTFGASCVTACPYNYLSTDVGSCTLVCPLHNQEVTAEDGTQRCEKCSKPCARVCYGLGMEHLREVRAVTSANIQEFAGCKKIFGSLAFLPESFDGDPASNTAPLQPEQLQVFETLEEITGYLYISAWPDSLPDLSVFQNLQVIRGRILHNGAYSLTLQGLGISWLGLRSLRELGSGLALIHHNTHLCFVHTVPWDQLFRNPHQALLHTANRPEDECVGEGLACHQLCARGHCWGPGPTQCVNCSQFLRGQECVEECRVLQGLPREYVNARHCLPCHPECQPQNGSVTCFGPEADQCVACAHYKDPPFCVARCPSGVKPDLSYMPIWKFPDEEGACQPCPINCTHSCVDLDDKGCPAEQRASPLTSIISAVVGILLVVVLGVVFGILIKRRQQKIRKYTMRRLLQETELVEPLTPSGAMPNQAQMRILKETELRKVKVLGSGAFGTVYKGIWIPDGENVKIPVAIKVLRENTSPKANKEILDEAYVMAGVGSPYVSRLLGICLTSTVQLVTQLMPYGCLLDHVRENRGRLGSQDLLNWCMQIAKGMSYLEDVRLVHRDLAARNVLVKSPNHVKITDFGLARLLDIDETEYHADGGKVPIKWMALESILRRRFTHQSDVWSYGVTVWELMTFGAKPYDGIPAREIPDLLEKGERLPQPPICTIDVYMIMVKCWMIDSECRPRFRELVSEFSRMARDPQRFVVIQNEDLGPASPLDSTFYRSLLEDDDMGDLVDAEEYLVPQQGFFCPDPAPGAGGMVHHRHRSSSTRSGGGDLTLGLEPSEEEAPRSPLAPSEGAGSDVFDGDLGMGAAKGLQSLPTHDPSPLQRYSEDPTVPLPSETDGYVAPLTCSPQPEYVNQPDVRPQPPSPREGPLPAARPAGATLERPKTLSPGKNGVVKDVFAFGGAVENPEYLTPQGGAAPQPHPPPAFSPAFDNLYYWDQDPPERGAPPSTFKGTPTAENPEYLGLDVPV
# Description: (A-C) HER2-positive […] (SKBR3, A; NCI-N87, B; BT474, C) treated or not with Ebselen
# indicated, were analyzed by western blot to evaluate HER2 activation status using antibodies directed
# Proliferation was assessed by Incucyte during 4 days.
# HER2 (pY1248) in SKOV3 = target: T2, HER2 (pY1248) in SKOV3 (Homo sapiens, UniProt P04626); assay: HER2 activation in SKOV3 ovarian cancer cells, western blot; assay type: cell-based; conditions: ebselen oxide 0–10 μM 24 h, AG1478 5 μM
# T2 construct: host or cells: SKOV3
# T2 sequence (P04626 23-1255): as above
# Description: Human bone marrow endothelial cells (HBMECs) kindly provided by Dr. B. Weksler (Weill Medical College of Cornell University, NY) were cultured as described previously. The human breast cancer cell lines [SKBR3 (RRID:CVCL_0033), BT474 (RRID:CVCL_0179), and MDA‐MB‐231 (RRID:CVCL_0062)], the human gastric [NCI‐87 (RRID:CVCL_1603)] and ovarian [SKOV3 (RRID:CVCL_0532)] cancer cell lines were obtained from the American Type Culture Collection (Manassas, VA) and were maintained in DMEM containing 10% FBS. All cell lines were cultured under 5% CO2 at 37 °C. HBMECs were transfected using Amaxa Inc nucleofector system (Kit V and U015 program). […]
# as §1, with “A representative western blot is shown out of 4 independent experiments.” left out, “A western blot is shown (n = 1).” left out, “Data are mean ± SEM (n = 9–12) of three independent experiments.” left out
# SKOV3 = assay: Proliferation of SKOV3 cells; assay type: cell-based, human; conditions: ebselen oxide 7–10 μM, AG1478 5 μM
# [2] = target: T3, JMHER2/FERME interaction (biot-JMHER2 peptide and GST-FERME, N-terminal FERM domain of ezrin) (Homo sapiens, UniProt P04626); assay: AlphaScreen competition of HER2 juxtamembrane peptide / ezrin FERM domain interaction; assay type: binding; conditions: for Inhibition of HER2-FERME interaction, %: compound 0–50 μM, biot-JMHER2 5 nM; for EC50: read-out: EC50, μM (inhibition of HER2-FERME interaction); for Competition with HER2/FERM interaction / binding affinity for JMHER2: compared to ebselen oxide
# T3 construct: purchased Proteogenix
# Description: Biotinylated peptide derived from HER2 cytosolic juxtamembrane region (JMHER2, […] ) has been synthesized by Proteogenix (Schiltigheim, France). The binding reaction was described previously. Briefly, white 384‐well Optiplates (PerkinElmer, Whalham, MA, USA) were used to prepare GST‐FERME and biotinylated peptide in a binding buffer (PBS, pH 7.4, 5 mM MgCl2, and 0.02% CHAPS). GST‐FERME was incubated with biotinylated‐HER2 for 30 min at room temperature. AlphaScreen® Streptavidin Donor beads (20 μg·mL^−1) and Glutathione AlphaLISA® Acceptor Beads (20 μg·mL^−1) were added to the wells for overnight incubation in the dark and at room temperature. Light signal was detected with the EnVision® multilabel plate reader (PerkinElmer).
# Ebselen came out as an interesting hit. Ebselen is a synthetic organoselenium compound with the anti‐inflammatory and antioxidant property that has been evaluated in clinical trials for ischemic stroke and acute hearing loss. However, in vivo, ebselen rapidly reacts with peroxynitrite to form ebselen oxide. […] In addition, using surface plasmon resonance (SPR), we confirmed that both compounds could directly bind to JMHER2 (Fig. 1E,F). […] The slight decrease in HER2 expression was not significant. To examine whether HER2 inhibition by ebselen oxide was dependent on JMHER2/FERME interaction, we transfected HBMEC cells with a previously described glycoprotein D‐tagged HER2 form mutated on the critical amino acids involved in ERM binding (gD‐HER2‐EBM*).
# [3] = tested on: HER2+ breast cancer cells; assay: HER2-dependent (anchorage-dependent) proliferation, Table 1; assay type: cell-based, human
# Source text: Given the promising effects of ebselen oxide, we then evaluated several structurally related compounds in order to define the structural determinants essential for HER2 binding and inhibition. […] These observations allowed us to define a pharmacophore of ebselen derivatives required for HER2 inhibition where atoms in position Y and R (shown in red in structure) can be modified as followed: Y is either a S or a Se=O and R is either H or Cl or Me but not OMe or CF3 (Table 1).
# HER2 (pY1248) in SKBR3 = target: T4, HER2 (pY1248) in SKBR3 (Homo sapiens, UniProt P04626); assay: HER2 activation (pY1248-HER2) in SKBR3 cells, western/dot blot; assay type: cell-based; design: Inhibition of HER2 activation / HER2 inhibition, %: concentration or dose not given beside the values; conditions: for Inhibition of HER2 activation/activity: HER2+ breast cancer cells (SKBR3 in Fig. S1); for HER2 inhibition, % / EC50: Table 1, HER2+ breast cancer cells (ebselen oxide value equals SKBR3 48 h); for EC50: read-out: EC50, μM (HER2 inhibition)
# T4 construct: host or cells: SKBR3
# T4 sequence (P04626 23-1255): as above
# NCI-N87 [4] = assay: Incucyte proliferation, single agents and combinations, NCI-N87; assay type: cell-based; conditions: Homo sapiens, NCI-N87, 96 h; read-out: Reduction/inhibition of cell proliferation
# Description: (§2) (A–C) Proliferation curves of HER2‐positive (SKBR3, A; BT474, B; NCI‐N87, C) cancer cell lines treated or not with ebselen oxide (10 μM), lapatinib (10–1000 nM), or combination of these agents, as indicated. Proliferation was assessed overtime by Incucyte during 4 days. Data are mean ± SD (n = 8–12) of a representative experiment out of 4 (A), 3 (B), or 2 (C) independent experiments. […] Proliferation was assessed by Incucyte during 4 days. […] Scale bars are […].
# NCI-N87 [5] = assay: Anchorage-independent growth (spheroid assay, ULA plates), NCI-N87; assay type: cell-based, human; conditions: ebselen oxide 10 μM, lapatinib 10 nM, trastuzumab 10 μg·mL−1, alone or combined
# SKBR3 = assay: Incucyte proliferation, single agents and combinations, SKBR3; assay type: cell-based; conditions: Homo sapiens, SK-BR-3, 96 h; read-out: Reduction/inhibition of cell proliferation
# Description: as §2
# BT474 = assay: Incucyte proliferation, single agents and combinations, BT474; assay type: cell-based; conditions: Homo sapiens, BT-474, 96 h; read-out: Reduction/inhibition of cell proliferation
# Description: as §2
# [6] = design: method as in PMID 23299882; conditions: cited from earlier work
# [7] = tested on: main protease of SARS‐CoV‐2; design: method as in PMID 33120196; conditions: cited from earlier work
# [8] = design: method as in PMID 34299505; conditions: whatever the administered doses; cited from earlier work
# [9] = target: T5, JMHER2 (peptide derived from the cytosolic juxtamembrane sequence of HER2) (Homo sapiens, UniProt P04626); assay: Surface plasmon resonance binding to immobilized HER2 juxtamembrane peptide; conditions: analyte 5 or 10 μM, 60 s injection
# T5 construct: purchased Proteogenix
# Description: Interaction was performed on a BIAcore T200 instrument BIAcore (Cytiva Life Sciences, Marlborough, MA, USA); GE Healthcare (Little Chalfont, UK). […] Ebselen or ebselen oxide was used as an analyte and injected at 5 or 10 μM at a flow rate of 25 μL·min^−1 for 60 s.
# [10] = design: method as in PMID 11546910; conditions: after intravenous injection; cited from earlier work
SMILES,"Inhibition of HER2-FERME interaction, % ([2]; AlphaScreen, 20 h) [%]","EC50 ([2]; AlphaScreen, 20 h) [µM]",Competition with HER2/FERM interaction / binding affinity for JMHER2 [2],Inhibition of HER2 activation/activity (HER2 (pY1248) in SKBR3),"HER2 inhibition, % (HER2 (pY1248) in SKBR3) [%]",Effect on proliferation of HER2+ breast cancer cells [3],EC50 (HER2 (pY1248) in SKBR3) [µM],further results
"COc1cc2ncnc(Nc3cccc(Cl)c3)c2cc1OC [AG1478, Tyrphostin AG1478, reference compound]",,,,,,,,"Effect on proliferation (NCI-N87 [1]): decrease; Effect on HER2 activation (HER2 (pY1248) in NCI-N87; ebselen oxide 0–20 μM 24 h, AG1478 5 μM): decrease; Effect on HER2 activation (HER2 (pY1248) in SKOV3): decrease; Effect on proliferation (SKOV3): decrease"
"O=C1c2ccccc2C(=O)N1c1ccccc1 [Analog 4, N‐phenylphtalimide]",47.3,0.003,greater binding affinity,no or low inhibition,0.0,no or low inhibition,,
"CS(=O)(=O)CCNCc1ccc(-c2ccc3ncnc(Nc4ccc(OCc5cccc(F)c5)c(Cl)c4)c3c2)o1 [lapatinib, Lapatinib ditosylate, reference compound]",,,,,,,,"Effect on HER2 activation, single agents and combination (HER2 (pY1248) in NCI-N87; ebselen oxide 10 μM, lapatinib 10 nM): partially decreased; inhibition at 0.01 µM (NCI-N87 [4]): 53%; Reduction of anchorage-independent growth (spheroid assay) (NCI-N87 [5]): 35%; inhibition at 0.01 µM (SKBR3): 39%; Effect on HER2 activation, single agents and combination (HER2 (pY1248) in SKBR3; SKBR3, ebselen oxide 10 μM, lapatinib 10 nM): partially decreased; inhibition at 0.01 µM (BT474): 18%"
O=c1c2ccccc2[se]n1-c1ccccc1 [Ebselen],,0.044,,poorly inhibited; also recorded: did not inhibit,14.4,,51.3,"Blood–brain barrier permeation [6]: blood–brain barrier permeant; Inhibition of the main protease of SARS-CoV-2 [7]: highly active; Tolerability in vivo [8]: always well tolerated; Direct binding to JMHER2 (SPR) [9]: directly bind; Half-life [10]: 1 to 3 h; Time to maximum serum concentration [10]: 1 h; IC50 ([2]; AlphaScreen, 20 h): 44 nM"
"Cc1ccc(-n2sc3ccccc3c2=O)cc1 [Analog 1, 2‐(4‐methylphenyl)‐1,2‐benzisothiazol‐3(2H)‐one]",45.0,0.716,competed,inhibited,65.0,reduced,39.8,

# More lines, main results first:
"Inhibition of HER2-FERME interaction, % ([2]; AlphaScreen, 20 h) [%]","EC50 ([2]; AlphaScreen, 20 h) [µM]",Competition with HER2/FERM interaction / binding affinity for JMHER2 [2],Inhibition of HER2 activation/activity (HER2 (pY1248) in SKBR3),"HER2 inhibition, % (HER2 (pY1248) in SKBR3) [%]",SMILES,Effect on proliferation of HER2+ breast cancer cells [3],EC50 (HER2 (pY1248) in SKBR3) [µM],further results
100,95.1,drastically reduced,,,"O=c1c2ccccc2[s+]([O-])n1-c1ccc(Cl)cc1 (centres unmarked) [Analog 8, 2‐(4‐chlorophenyl)‐1‐oxo‐1,2‐benzothiazol‐3‐one]",,,
100,97,drastically reduced,,,"O=c1c2ccccc2sn1-c1ccc(C(F)(F)F)cc1 [Analog 7, 2‐[4‐(trifluoromethyl)phenyl]‐1,2‐benzothiazol‐3‐one]",,,
40.4,1.08,competed,inhibited,75.4,"O=c1c2ccccc2sn1-c1ccc(Cl)cc1 [Analog 2, 2‐(4‐chlorophenyl)‐1,2‐benzisothiazol‐3(2H)‐one]",reduced,41.7,
43.6,2.53,,no or low inhibition,0.2,"Cc1ccc(-n2c(=O)c3ccccc3[s+]2[O-])cc1 (centres unmarked) [Analog 6, 2‐(4‐Methylphenyl)‐1‐oxo‐1,2‐benzothiazol‐3‐one]",no or low inhibition,,
49.0,0.255,greater binding affinity,no or low inhibition,16.3,"CC(C)c1ccc(N2Cc3ccccc3C2=O)cc1 [Analog 5, 2‐(4‐isopropyl phenyl)‐1‐isoindolinone]",no or low inhibition,2,
